According to paper PMC10458858, “Phytochemical Investigation of Lepionurus sylvestris Blume and Their Anti-Diabetes Effects via Anti-Alpha Glucosidase and Insulin Secretagogue Activities Plus Molecular Docking” (Pharmaceuticals, 2023):
“And” between values parts separate entries of the source, which are not always exact repeats. Equal entries are not always repeated. Where two headings read alike, the source gives them in different places.

Experiments:
[1] = system: insulin-secreting rat insulinoma (INS-1E) cells; assay: Insulin secretagogue activity (ELISA); assay type: cell-based; details: 100 μg/mL, 24 h
Procedure: The experiment was slightly modified from previous reports. In brief, the insulin secretion was determined by testing insulin-secreting rat insulinoma (INS-1E) cells, supported by Prof. Dr. Michael Wink, Institute of Pharmacy and Molecular Biotechnology (IPMB), University of Heidelberg, Germany. The cells were cultured in RPMI-1640 liquid medium and supplementary nutrients for cell culture under the condition of a 37 °C humidified incubator containing 5% CO2. The cells were seeded into 24-well plates at 2 × 10^5 cells. Later, the cells were treated with glucose-free culture media to stop energy consumption in the cell metabolism. Afterward, the minimum concentration of glucose in RPMI-1640 was added to the samples for 24 h. Finally, the insulin secretion was measured for insulin releasing by ELISA technique.

alpha glucosidase enzyme = alpha glucosidase enzyme (Saccharomyces cerevisiae, UniProt P53341); assay: Anti-alpha glucosidase activity and mechanism of action (Michaelis–Menten, Lineweaver–Burk plots); assay type: biochemical; details: for inhibition at 400 µg/mL: read-out: Alpha Glucosidase Inhibition at 400 μg/mL
Procedure: The anti-alpha glucosidase activity was determined by following Phoopha et al.’s method. […] The reaction was prepared using a phosphate buffer (pH 7.0), sample (was dissolved in DMSO), […] as substrate, and alpha glucosidase enzyme solution. The test was evaluated by measuring the velocity of the reaction per minute.

[2] = system: A549 (human lung adenocarcinoma); assay: in vitro; assay type: cell-based
Procedure: (§1) The toxicity in human cancer cells was tested on a human breast carcinoma cell line (MCF-7), human cervix adenocarcinoma cell line (HeLa), and human lung carcinoma cell line (A549), which were compared to a human gingival fibroblast cell line (HGF) as the normal cells. These cells were cultured in DMEM liquid medium, supporting supplementary nutrients for cell culture. […] A sulforhodamine B assay was used to evaluate the cytotoxic effects of the samples, following a previous report [19]. In brief, the cancer cells were seeded into 96-well plates at 5 × 10^3 cells and incubated for 24 h. Later, we added the test samples at the final concentration of 25 μg/mL and left the experiment in the incubator for 72 h. After that, the cancer cells were fixed with cold 10% trichloro acetic acid for an hour and then we washed the acid with water. The dried plate was dyed with 0.4% SRB in 1% acetic acid for 30 min, and we washed the color with 1% acetic acid 4 times. The SRB color was dissolved in the cancer cells by adding 10 mM tris-base and measuring with a microplate reader at 492 nm.

[3] = system: HGF (human gingival fibroblast)
Procedure: as §1

[4] = system: MCF-7 (human breast adenocarcinoma); assay: in vitro; assay type: cell-based
Procedure: as §1

[5] = system: Hela (human cervix adenocarcinoma); assay: in vitro; assay type: cell-based
Procedure: as §1

in vitro [6] = assay type: cell-based, human; details: human; 25 µg/mL, 72 h, SRB; read-out: Cytotoxic Effect at 25 µg/mL (% Inhibition) ± SD, A549
Procedure: as §1

in vitro [7] = details: human
Procedure: as §1

in vitro [8] = assay type: cell-based, human; details: human; 25 µg/mL, 72 h, SRB; read-out: Cytotoxic Effect at 25 µg/mL (% Inhibition) ± SD, MCF-7
Procedure: as §1

in vitro [9] = assay type: cell-based, human; details: human; 25 µg/mL, 72 h, SRB; read-out: Cytotoxic Effect at 25 µg/mL (% Inhibition) ± SD, HeLa
Procedure: as §1

[10] = control 2.5 mM glucose in RPMI-1640
[11] = 400 μg/mL, isolated compounds panel

Chain of alpha glucosidase enzyme (P53341 whole entry): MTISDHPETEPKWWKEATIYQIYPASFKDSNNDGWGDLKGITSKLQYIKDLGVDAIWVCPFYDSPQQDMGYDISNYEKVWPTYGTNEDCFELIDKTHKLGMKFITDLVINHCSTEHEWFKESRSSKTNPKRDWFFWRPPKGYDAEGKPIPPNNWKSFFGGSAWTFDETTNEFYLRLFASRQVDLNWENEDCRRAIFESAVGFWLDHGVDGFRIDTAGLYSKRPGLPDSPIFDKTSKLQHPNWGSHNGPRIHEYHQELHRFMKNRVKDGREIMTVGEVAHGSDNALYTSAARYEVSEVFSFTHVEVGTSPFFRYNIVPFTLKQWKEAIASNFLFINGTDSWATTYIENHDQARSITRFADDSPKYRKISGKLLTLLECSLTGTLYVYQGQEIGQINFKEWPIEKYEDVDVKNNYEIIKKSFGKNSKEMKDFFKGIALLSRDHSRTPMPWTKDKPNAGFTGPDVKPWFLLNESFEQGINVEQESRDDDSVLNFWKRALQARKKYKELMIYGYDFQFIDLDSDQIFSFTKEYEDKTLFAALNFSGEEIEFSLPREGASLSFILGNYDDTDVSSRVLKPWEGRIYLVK

Cc1c(O)c(C(=O)CCc2ccccc2)c2oc(=O)cc(-c3ccccc3)c2c1O [Interruptin A]
total insulin secretion (insulin concentration) [1, 10]: 102.52 µg/L and 102.5228 µg/L
inhibition at 400 µg/mL (alpha glucosidase enzyme; [11]): 30.3 ± 1.17%

OCC(O)COCC(O)CO (stereo not drawn) [Diglycerol]
total insulin secretion (insulin concentration) [1, 10]: 102.2139 µg/L
total insulin secretion (insulin concentration) ([1]; control 2.5 mM glucose in RPMI-1640, listed as diglycerol): 102.21 µg/L
inhibition at 400 µg/mL (alpha glucosidase enzyme; [11]): 6.23 ± 1.84%

CC(C)[C@@H](C)/C=C/[C@@H](C)[C@H]1CC[C@H]2C3=CC=C4C[C@@H](O)CC[C@]4(C)[C@H]3CC[C@]12C [Ergosterol]
total insulin secretion (insulin concentration) [1, 10]: 102.4525 µg/L
total insulin secretion (insulin concentration) ([1]; control 2.5 mM glucose in RPMI-1640, listed as ergosterol): 102.45 µg/L
inhibition at 400 µg/mL (alpha glucosidase enzyme): 18.6 ± 1.42%

Hexane
Cytotoxic Effect at 25 µg/mL (% Inhibition) ± SD, A549 [2]: 15.40 ± 2.75%
Cytotoxic Effect at 25 µg/mL (% Inhibition) ± SD, HGF [3]: 48.23 ± 2.96%
cytotoxicity category on HGF cells [3]: moderate (key: non-cytotoxic: cell viability above 80%; weak: 80–60%; moderate: 60–40%; strong: below 40%)
Cytotoxic Effect at 25 µg/mL (% Inhibition) ± SD, MCF-7 [4]: 53.54 ± 1.81%
Cytotoxic Effect at 25 µg/mL (% Inhibition) ± SD, HeLa [5]: 83.89 ± 4.31%

Cc1c(O)c(C(=O)C(O)Cc2ccccc2)c2oc(=O)cc(-c3ccccc3)c2c1O (stereo not drawn) [Interruptin C]
total insulin secretion (insulin concentration) [1, 10]: 102.0534 µg/L
total insulin secretion (insulin concentration) ([1]; control 2.5 mM glucose in RPMI-1640, listed as interruptin C): 102.05 µg/L
inhibition at 400 µg/mL (alpha glucosidase enzyme; [11]): 58.2 ± 0.83%

CC[C@@]1(O)C(=O)OCc2c1cc1n(c2=O)Cc2cc3ccccc3nc2-1 [Camptothecin, reference compound]
inhibition at 72 h, 25 µg/mL (in vitro [6]): 87.7 ± 1.78%
inhibition at 72 h, 25 µg/mL (in vitro [7]): 7.35 ± 1.34%
inhibition at 72 h, 25 µg/mL (in vitro [8]): 92.95 ± 0.33%
inhibition at 72 h, 25 µg/mL (in vitro [9]): 85.2 ± 1.23%

COc1ccc(Cl)cc1C(=O)NCCc1ccc(S(=O)(=O)NC(=O)NC2CCCCC2)cc1 [Glibenclamide, reference compound]
total insulin secretion (insulin concentration) [1, 10]: 104.57 µg/L and 104.5722 µg/L

C=C1CC23COC(=O)C2=CCC[C@@H]3[C@@H]2C[C@H](c3ccoc3)OC(=O)[C@H]12 (stereo partly drawn) [The new diterpene (Lepionurodiolide), 15-16-epoxy-neo-cleoda-3,7(20),13(16),14-tetraene-12,17:18,19-diolide]
total insulin secretion (insulin concentration) ([1]; control 2.5 mM glucose in RPMI-1640, listed as The new diterpene): 52.0566 µg/L
total insulin secretion (insulin concentration) ([1]; control 2.5 mM glucose in RPMI-1640, listed as the new diterpene compound): 52.06 µg/L
inhibition at 400 µg/mL (alpha glucosidase enzyme; [11]): 58.48 ± 0.48%

C[C@H]1O[C@H](O[C@H]2[C@H](O)[C@@H](O)[C@@H](O[C@H]3[C@H](O)[C@@H](O)C(O)O[C@@H]3CO)O[C@@H]2CO)[C@H](O)[C@@H](O)[C@@H]1N[C@H]1C=C(CO)[C@@H](O)[C@H](O)[C@H]1O (stereo partly drawn) [Acarbose, reference compound]
Alpha Glucosidase Inhibition at 400 μg/mL (alpha glucosidase enzyme; [11]): 62.14 ± 0.37
Alpha Glucosidase Inhibition at 2 mg/mL (alpha glucosidase enzyme; 2 mg/mL, extracts panel): 88.18 ± 0.53%
mechanism of enzyme inhibition (alpha glucosidase enzyme; Michaelis–Menten and Lineweaver–Burk kinetic plots): competitive
